Here are results for three compounds from patent publication US6197818A, “Drug for treating diabetic nephrosis” (Nanjing General Hospital of Nanjing Command, PLA, priority 1999, dated 2001).

Series [1] concerns Diabetic animal model of rat. The series can be described thus: Suppression of renal hypertrophy by rhein in experimental diabetic rats (streptozotocin). In kind it is in vivo, SD rats. Conditions: for blood glucose level / Kidney Index (kidney weight/body weight ratio) / Kidney Volume / Kidney Weight: rhein-treated 2 mg/Kg/day; for Kidney Index (kidney weight/body weight ratio) / Kidney Volume / Kidney Weight: 12th week. The protocol: The concentration of rhein is 0.2 g/L.
Rats were made diabetic by an intra-abdominal injection of Streptozotocin (Sigma Chemical Co.; in 0.1 mmol/L citrate buffer, pH 4.5) in a dose of 25 mg/Kg/day for 5 days.
(§1) The observation was focused on the changes of kidney weight and volume in diabetic rats treated by rhein.

Series [2] can be described thus: solubility and stability of rhein. The format is physicochemical. An excerpt:
It remains steady in room temperature for more than one year. The general formula of rhein or the salt thereof is shown as the following: [drawing 2]

Another series has as its system diabetic nephropathy. The series can be described thus: Clinical trial of rhein on diabetic nephropathy. In kind it is in vivo, human diabetic patients. The protocol:
Twenty-five diabetic patients diagnosed according to the standard of WHO where enrolled in this study. The fast blood glucose levels were above 250 mg/100 ml in these patients. Diabetic nephropathy was confirmed morphologically by renal biopsy, or with measurement of urinary protein or albumin excretion in each patient.
A yellow powder supplied in capsula containing 25 mg rhein. The dosage of 100 mg per day (50 mg twice a day) rhein was given orally as therapy. All patients were followed at regular intervals for measurement of serum creatinine values and urinary protein or albumin excretion at least for 3 months.

The nature of series [3]: acute toxicity, half lethal dose (LD50). In kind it is in vivo. The following applies: rat, in vivo; SD rats.
The subject of another series is SD rats. The series can be described thus: acute toxicity, half lethal dose (LD50). In kind it is in vivo. Conditions: natural product.
Series [4] can be described thus: tolerability of oral rhein in volunteers. In kind it is in vivo, human volunteers. The protocol:
Of the thirty-six volunteers given rhein at dose of 200 mg/day (100 mg, b.i.d) for 3 days, only 5 persons experience gastro-intestinal disorders. Diarrhea occurred twice or thrice a day in three of these persons, and four times in only one person.

The nature of series [5]: pharmacokinetic study of oral rhein, blood level. The format is in vivo, human (volunteers). The protocol: The blood level of rhein still kept at 200 to 500 ng/ml at 24th hour in volunteers.
The test system of series [6] is Diabetic animal model of rat. The series can be described thus: Suppression of renal hypertrophy by sodium rheinate in experimental diabetic rats (streptozotocin). The following applies: for blood glucose level / Kidney Index (kidney weight/body weight ratio) / Kidney Weight: treated 1 mg/Kg/day Rhein-Na; for Kidney Index (kidney weight/body weight ratio) / Kidney Weight: 12th week. The format is in vivo, SD rats. The protocol:
Drug: aqueous solution of sodium rheinate at concentration of 0.1 g/L for oral
Diabetic animal model of rat: Adult female SD rats (Experimental Animal Center, Jinling Hospital, Nanjing) with body weights of 200 to 250 grams were used. Rats were made diabetic by an intra-abdominal injection of Streptozotocin (Sigma Chemical Co.; in 0.1 mmol/L citrate buffer, pH 4.5) in a dose of 25 mg/Kg/day for 5 days. Only rats with blood glucose level within the range of 13 to 25 mmol/L were recognized as the establishment of the diabetic mode.
as §1
The experiment was designed as the following:
Normal rats Diabetic rats
Control treated Control treated
Dosage of Rhein-Na, 0 1 0 1
Distilled water, ml/Kg/day 5 5 5 5

Series [7] has as its system kidney damage caused by diabetes. The following applies: cited from earlier work.
Where [8] appears, read: diabetic rats, 1 week after diabetic.
[9] abbreviates: diabetic rats, 4 weeks after diabetic.
Setting [10] is: diabetic rats, pre-diabetic (baseline).
Setting [11] is: experimental diabetic rats, oral.
The mark [12] stands for this setting: Treatment after 3 months, 100 mg per day.
Where [13] appears, read: of twenty-five, 100 mg per day, three months.
Setting [14] is: patients treated with rhein, 100 mg per day.
Where [15] appears, read: of thirty-six volunteers, 200 mg/day (100 mg, b.i.d) for 3 days.

Take `O=C(O)c1cc(O)c2c(c1)C(=O)c1cccc(O)c1C2=O` [rhein]: in series [1] (diabetic rats), the “kidney index (in words)” value was “decrease the kidney index (kidney weight/body weight ratio) obviously”, the “renal hypertrophy (in words)” value is “able to control or suppress renal hypertrophy”, the “Kidney Index (kidney weight/body weight ratio)” value is given as 4.76 ×10^-3 and the “Kidney Volume” value came out at 0.834 mL. In [1] (diabetic rats), the “Kidney Weight” value came to 0.93 grams. Also, in series [1] (setting [8]), the blood glucose level is 20.32 mmol/L. In [1] (setting [9]), this compound displayed a blood glucose level of 19.77 mmol/L. In addition, in [1] (diabetic rats, 8 weeks after diabetic), the blood glucose level came to 21.00 mmol/L. Further, the blood glucose level in series [1] (diabetic rats, 12 weeks after diabetic) was determined as 19.32 mmol/L. Besides, the blood glucose level in series [1] (setting [10]) worked out at 6.23 mmol/L. For the same compound, the “hyperglycemia (in words)” value in [1] (setting [11]) was “controlled or reduced effectively”. In addition, the blood glucose level in series [1] (normal rats, 1 week) is listed as 5.92 mmol/L. For the same compound, the blood glucose level in series [1] (normal rats, 4 weeks) came out at 5.66 mmol/L. In addition, the blood glucose level in series [1] (normal rats, 8 weeks) is 6.07 mmol/L. Further, in series [1] (normal rats), the “Kidney Index (kidney weight/body weight ratio)” value is listed as 4.04 ×10^-3, the “Kidney Volume” value was determined as 0.804 mL and the “Kidney Weight” value came to 0.72 grams. The same compound displayed a blood glucose level in [1] (normal rats, 12 weeks) of 6.22 mmol/L. In series [1] (normal rats, pre-diabetic), this compound gave a blood glucose level of 6.12 mmol/L. Also, the “solubility in organic solvent” value in [2] (organic solvent) is “soluble in organic solvent”. The “stability (remains steady)” value in [2] (room temperature) was “more than one”. Further, in [2] (water), the solubility in water entry is on record as “soluble slightly in water”. Besides, the “gastro-intestinal reactions as vomiting, diarrhea et al.” value with diabetic nephropathy (100 mg per day) is “None”. The “share of patients with obvious decrement of urinary protein excretion” value in the series on diabetic nephropathy (18 of twenty-five, 100 mg per day, three months) amounted to 72%. In addition, in the series with diabetic nephropathy (setting [12]), the “Change of urinary protein excretion: Decrease of 25%” value amounted to 5 No, the “Change of urinary protein excretion: Decrease of 50%” value is 9 No, the “Change of urinary protein excretion: Decrease of 75%” value is given as 4 No and the “Change of urinary protein excretion: No change” value stood at 7 No. Moreover, in the series on diabetic nephropathy (all patients, 100 mg per day), the “tolerability (in words)” value is recorded as “tolerated”. Further, the “urinary albumin excretion (in words)” value in the series on diabetic nephropathy (diabetic nephropathy patients) was “ameliorate the urinary albumin excretion significantly”. Moreover, the “urinary protein excretion (in words)” value with diabetic nephropathy (diabetic patients) was “could decrease the urinary protein excretion”. In the series on diabetic nephropathy (setting [13]), the “patients with no change or increase of urinary protein excretion” value is “seven” and the “patients with obvious decrement of urinary protein excretion” value is 18 patients. In the series on diabetic nephropathy (setting [14]), the Blood routine test result is “normal”; the “liver function and renal function” value is “no liver function abnormally and deterioration of renal function”. Also, in series [3], the LD50 (usually the dose expected to kill half of the subjects tested) was found to be 3200 mg/kg. Also, in the series on SD rats, the “toxicity (in words)” value was “low toxicity and safe for therapy”. Besides, in [4] (setting [15]), the “persons experiencing gastro-intestinal disorders” value was 5 persons, the “persons with diarrhea four times a day” value was “one” and the “persons with diarrhea twice or thrice a day” value is listed as “three”. For the same compound, the “gastro-intestinal reactions (in words)” value in series [4] (oral route, volunteers) is reported as “not marked gastro-intestinal reactions”. Moreover, in [5] (human, blood, po, 24th hour, volunteers, single dose of 200 mg), the concentration at 24 h fell in the range of 200 to 500 ng/mL. Moreover, the “time to peak blood level” value in [5] (one single dose of 200 mg, health man) was “one and half hours to three”. In series [5] (oral), the “absorption from gastro-intestinal trace” value was “easily absorbed” and the “maintenance of blood concentration” value was “maintains for a longer period”.

In the case of `O=C(O)c1cc(O)c2c(c1)C(=O)c1cccc(O)c1C2=O` [sodium rheinate], the blood glucose level in [6] (setting [8]) turned out to be 21.82 mmol/L; in [6] (setting [9]), 19.97 mmol/L; in [6] (setting [10]) it was 6.17 mmol/L; in series [6] (normal rats, 1 week) it was 6.52 mmol/L; in [6] (normal rats, 4 weeks), 6.48 mmol/L; in [6] (normal rats, pre-diabetic), 6.06 mmol/L. For the same compound, the “Kidney Index (kidney weight/body weight ratio)” value is on record as 5.68 ×10^-3 in series [6] (diabetic rats) and 4.34 ×10^-3 in [6] (normal rats). Further, the “Kidney Weight” value in [6] (diabetic rats) worked out at 0.71 grams; in series [6] (normal rats), 0.59 grams. In addition, in series [6] (setting [11]), the “hyperglycemia (in words)” value is reported as “controlled or reduced effectively”.

Take “insulin: the main medicament for its treatment is insulin at present”: in [7], the “effect on urinary glucose” value is recorded as “can decrease the urinary glucose”. In addition, the “effect on kidney damage caused by diabetes” value in [7] (such as renal hypertrophy) is reported as “no therapeutic effect”.
